# Biological target: T1, SRMS (Srm) (Homo sapiens, UniProt Q9H3Y6)
# T1 construct: purchased Thermo Fisher Scientific (Life Technologies) SelectScreen
# Assay: SelectScreen Z'LYTE
# Format: biochemical
# Method in brief: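 NU5455 was profiled across the SelectScreen Broad panel of kinase activity and binding assays. Z'LYTE reactions such as CSF1R ran at apparent Km ATP, while the Adapta CAMK1 assay used ATP listed as 10. Values are given as percent.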
# T1 sequence (Q9H3Y6 whole entry): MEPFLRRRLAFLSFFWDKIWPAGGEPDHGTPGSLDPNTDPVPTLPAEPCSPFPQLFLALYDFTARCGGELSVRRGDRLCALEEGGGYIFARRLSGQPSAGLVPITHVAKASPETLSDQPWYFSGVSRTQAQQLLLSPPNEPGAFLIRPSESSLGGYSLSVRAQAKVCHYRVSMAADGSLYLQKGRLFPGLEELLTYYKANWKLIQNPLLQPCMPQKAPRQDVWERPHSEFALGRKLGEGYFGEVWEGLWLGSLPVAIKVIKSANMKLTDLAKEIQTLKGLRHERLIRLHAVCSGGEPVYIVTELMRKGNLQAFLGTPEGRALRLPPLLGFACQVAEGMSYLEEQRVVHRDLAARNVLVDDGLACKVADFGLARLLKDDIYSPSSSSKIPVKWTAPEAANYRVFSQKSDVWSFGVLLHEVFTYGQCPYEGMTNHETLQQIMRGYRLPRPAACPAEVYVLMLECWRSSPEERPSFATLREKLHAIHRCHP
compound,measurement,value
CN(C(=O)CN1CCOCC1)c1ccc2sc3c(-c4cccc5c(=O)cc(N6CC7CCC(C6)O7)oc45)cccc3c2c1 [NU5455],inhibition at 1 µM,7.5%

# — article PMC6934184, “Selective DNA-PKcs inhibition extends the therapeutic index of localized radiotherapy and chemotherapy” (The Journal of Clinical Investigation, 2019)
